According to patent publication US20260285880A1, “SUBSTITUTED DIHYDROTHIENOPYRIMIDINE COMPOUND, PREPARATION METHOD THEREFOR, AND USE THEREOF” (SHANGHAI YIDI BIOTECHNOLOGY CO., LTD., priority 2023, published 2026):
Read-outs that look alike come from different tables or passages of the source.

Target: Flpin-293-PDE4B2 cells (Homo sapiens, UniProt Q07343)
Test: cell-based
[1] = read-out: Cell Inhibition % @1 nM, 1 nM, Flpin-293-PDE4B2 cells
[2] = read-out: Cell Inhibition % @10 nM, 10 nM, Flpin-293-PDE4B2 cells
[3] = read-out: Cell Inhibition % @100 nM, 100 nM, Flpin-293-PDE4B2 cells

Sequence of Flpin-293-PDE4B2 cells (Q07343 1-564 isoform Q07343-2): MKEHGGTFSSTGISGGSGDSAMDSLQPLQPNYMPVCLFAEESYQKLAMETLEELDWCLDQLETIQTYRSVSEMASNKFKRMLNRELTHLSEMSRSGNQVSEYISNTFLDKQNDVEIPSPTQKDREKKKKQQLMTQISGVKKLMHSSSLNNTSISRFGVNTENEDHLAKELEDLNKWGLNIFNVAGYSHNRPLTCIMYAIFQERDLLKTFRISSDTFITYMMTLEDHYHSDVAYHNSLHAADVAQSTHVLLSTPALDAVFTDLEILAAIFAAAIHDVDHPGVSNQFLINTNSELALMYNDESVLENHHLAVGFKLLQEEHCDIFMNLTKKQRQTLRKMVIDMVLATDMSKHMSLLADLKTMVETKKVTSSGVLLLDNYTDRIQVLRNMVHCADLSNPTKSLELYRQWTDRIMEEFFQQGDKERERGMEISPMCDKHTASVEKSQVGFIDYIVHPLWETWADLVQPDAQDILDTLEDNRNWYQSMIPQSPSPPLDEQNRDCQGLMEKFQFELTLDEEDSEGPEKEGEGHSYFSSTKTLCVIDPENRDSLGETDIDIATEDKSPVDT

Row | Compound | inhibition at 0.001 µM [1] [%] | inhibition at 0.01 µM [2] [%] | inhibition at 0.1 µM [3] [%] | inhibition at 0.001 µM (read-out: Cell Inhibition % @1 nM) [%] | inhibition at 0.01 µM (read-out: Cell Inhibition % @10 nM) [%] | inhibition at 0.1 µM (read-out: Cell Inhibition % @100 nM) [%]
1 | C[C@H]1c2ccc(N3CCCC3)cc2CCN1c1nc2c(c(N[C@H]3CCC(=O)N(C)C3)n1)[S+]([O-])CC2 (stereo partly shown) [Compound 202] | 52.5 | 99.4 | 101 | – | – | –
2 | [O-][S+]1CCc2nc(N3CCc4cc(Cl)ncc4C3)nc(NC3(CO)CCC3)c21 (stereo not shown) [Compound 78] | – | – | – | 2.2 | 32.1 | 86.3
3 | C[C@H]1c2ccc(N3CCCC3)cc2CCN1c1nc2c(c(NC3(CO)CCOC3)n1)[S+]([O-])CC2 (stereo partly shown) [Compound 211] | 12.5 | 50.1 | 98.4 | – | – | –
4 | O=C(O)Cc1ccc(Nc2nc(N3CCc4cc(Cl)ccc4C3)nc3c2[S@+]([O-])CC3)cc1 [Compound 129] | 6.93 | 39.6 | 72.2 | – | – | –
5 | C[C@H]1c2ccc(N3CCC(F)(F)C3)cc2CCN1c1nc2c(c(NC3(CO)CCC3)n1)[S+]([O-])CC2 (stereo partly shown) [Compound 224] | 10.7 | 44.4 | 98.9 | – | – | –
6 | C[C@H]1c2ccc(N3CCCC3)cc2CCN1c1nc2c(c(NC3(CO)CC3)n1)[S+]([O-])CC2 (stereo partly shown) [Compound 203] | 14.8 | 84.1 | 99.9 | – | – | –
7 | COC[C@@H](CO)Nc1nc(N2CCc3cc(N4CCCC4)ccc3C2)nc2c1[S+]([O-])CC2 (stereo partly shown) [Compound 199] | -0.51 | 8.04 | 61.6 | – | – | –
8 | N#CCc1ccc(Nc2nc(N3CCc4cc(Cl)ccc4C3)nc3c2[S+]([O-])CC3)cc1 (stereo not shown) [Compound 138] | 4.95 | 27.9 | 89.6 | – | – | –
9 | C[C@H]1c2ccc(N3CCCC3)cc2CCN1c1nc2c(c(NC3CS(=O)(=O)C3)n1)[S+]([O-])CC2 (stereo partly shown) [Compound 204] | 23.1 | 87.2 | 100 | – | – | –
10 | COc1ccc2c(c1)OC[C@H]1CN(c3nc4c(c(NC5(CO)CCC5)n3)[S+]([O-])CC4)CC[C@H]21 (stereo partly shown) [Compound 110] | 19 | 76.1 | 100 | – | – | –
11 | [O-][S+]1CCc2nc(N3CCc4cc(Cl)ccc4C3)nc(Nc3ccc(CCO)cc3)c21 (stereo not shown) [Compound 139] | 16.2 | 78.6 | 102 | – | – | –
12 | C[C@H]1c2ccc(N3CCCC3)cc2CCN1c1nc2c(c(Nc3ncnn3C)n1)[S+]([O-])CC2 (stereo partly shown) [Compound 217] | 2.48 | 25 | 84.5 | – | – | –
13 | C[C@H]1c2ccc(N3CCCC3)cc2CCN1c1nc2c(c(Nc3cnn(C)c3)n1)[S+]([O-])CC2 (stereo partly shown) [Compound 207] | 30.8 | 94.4 | 100 | – | – | –
14 | [O-][S+]1CCc2nc(N3CC[C@@H]4c5ccc(C(F)(F)F)cc5OC[C@H]4C3)nc(NC3(CO)CCC3)c21 (stereo partly shown) [Compound 111] | 8.07 | 22.2 | 81.1 | – | – | –
15 | C[C@H]1c2ccc(N3CCCC3)cc2CCN1c1nc2c(c(NC3(CO)CCCC3)n1)[S+]([O-])CC2 (stereo partly shown) [Compound 221] | 11.3 | 71.5 | 99.7 | – | – | –
16 | C[C@H]1c2ccc(N3CCCC3)cc2CCN1c1nc2c(c(Nc3nnn(C)n3)n1)[S+]([O-])CC2 (stereo partly shown) [Compound 213] | 9.25 | 29.6 | 89 | – | – | –
17 | Cn1cc(Nc2nc(N3CCc4cc(N5CC6CC6C5)ccc4C3)nc3c2[S+]([O-])CC3)cn1 (stereo not shown) [Compound 223] | 11.3 | 73.7 | 99.2 | – | – | –
18 | C[C@H]1c2ccc(N3CCCC3)cc2CCN1c1nc2c(c(Nc3ccnn3CCO)n1)[S+]([O-])CC2 (stereo partly shown) [Compound 219] | 6.98 | 32.6 | 66.3 | – | – | –
19 | NC(=O)Nc1ccc(Nc2nc(N3CCc4cc(Cl)ccc4C3)nc3c2[S+]([O-])CC3)cc1 (stereo not shown) [Compound 137] | 4.94 | 21.8 | 83.8 | – | – | –
20 | CC(=O)N1CC[C@H](Nc2nc(N3CCc4cc(N5CCCC5)ccc4[C@@H]3C)nc3c2[S+]([O-])CC3)C1 (stereo partly shown) [Compound 222] | 41.5 | 96.2 | 101 | – | – | –

More lines, main results first:

Row | inhibition at 0.001 µM [1] [%] | inhibition at 0.01 µM [2] [%] | inhibition at 0.1 µM [3] [%] | Compound | inhibition at 0.001 µM (read-out: Cell Inhibition % @1 nM) [%] | inhibition at 0.01 µM (read-out: Cell Inhibition % @10 nM) [%] | inhibition at 0.1 µM (read-out: Cell Inhibition % @100 nM) [%]
21 | 2.83 | 38.9 | 95.4 | [O-][S+]1CCc2nc(N3CCc4c(c(NCCO)nc5cc(Cl)ccc45)C3)nc(NC3(CO)CCC3)c21 (stereo not shown) [Compound 103] | – | – | –
22 | 11.4 | 49.2 | 96 | Cn1cc(Nc2nc(N3CCc4cc(Cl)ccc4C3)nc3c2[S+]([O-])CC3)cn1 (stereo not shown) [Compound 141] | – | – | –
23 | 4.06 | 36.5 | 94.3 | [O-][S+]1CCc2nc(N3CCc4cc(N5CCC(CO)C5)ccc4C3)nc(NC3(CO)CCC3)c21 (stereo not shown) [Compound 171] | – | – | –
24 | -0.82 | 37.4 | 95.1 | [O-][S+]1CCc2nc(N3CC[C@@H]4c5cc(Cl)ccc5OC[C@H]4C3)nc(NC3(CO)CCC3)c21 (stereo partly shown) [Compound 108] | – | – | –
25 | 15 | 65.8 | 97.2 | [O-][S+]1CCc2nc(N3CCc4cc(-n5ccnc5)ccc4C3)nc(NC3(CO)CCC3)c21 (stereo not shown) [Compound 90] | – | – | –
26 | -4.2 | 6.8 | 66.7 | [O-][S+]1CCc2nc(N3CCc4cc(F)c(F)cc4C3)nc(NC3(CO)CCC3)c21 (stereo not shown) [Compound 95] | – | – | –
27 | 2.82 | 52.5 | 98.1 | [O-][S+]1CCc2nc(N3CC[C@@H]4c5cccc(Cl)c5OC[C@H]4C3)nc(NC3(CO)CCC3)c21 (stereo partly shown) [Compound 107] | – | – | –
28 | 3.35 | 43.7 | 98.2 | [O-][S+]1CCc2nc(N3CCc4cc(N5CCCC5)ccc4C3)nc(NC3(CO)CCC3)c21 (stereo not shown) [Compound 92] | – | – | –
29 | 8.67 | 32.2 | 94.4 | COC[C@@H]1CCCN1c1ccc2c(c1)CCN(c1nc3c(c(NC4(CO)CCC4)n1)[S+]([O-])CC3)C2 (stereo partly shown) [Compound 147] | – | – | –
30 | 0.41 | 21.2 | 67.5 | [O-][n+]1cc2c(c3ccc(Cl)cc31)CCN(c1nc3c(c(NC4(CO)CCC4)n1)[S+]([O-])CC3)C2 (stereo not shown) [Compound 106] | – | – | –
31 | 3.3 | 29.6 | 86.8 | C[C@H]1c2ccc(Br)cc2CCN1c1nc2c(c(NC3(CO)CCC3)n1)[S+]([O-])CC2 (stereo partly shown) [Compound 123] | – | – | –
32 | 1.99 | 11.2 | 59.4 | [O-][S+]1CCc2nc(N3CCc4cnc(Cl)cc4C3)nc(NC3(CO)CCC3)c21 (stereo not shown) [Compound 79] | – | – | –
33 | 4.18 | 43.7 | 96.5 | COc1nc2c(c3ccc(Cl)cc13)CCN(c1nc3c(c(NC4(CO)CCC4)n1)[S+]([O-])CC3)C2 (stereo not shown) [Compound 99] | – | – | –
34 | 34.8 | 94.1 | 100 | Cn1cnc(-c2ccc3c(c2)CCN(c2nc4c(c(NC5(CO)CCC5)n2)[S+]([O-])CC4)C3)n1 (stereo not shown) [Compound 94] | – | – | –
35 | 12.3 | 54.1 | 99.4 | Cc1ccc2c(c1)OC[C@H]1CN(c3nc4c(c(NC5(CO)CCC5)n3)[S+]([O-])CC4)CC[C@H]21 (stereo partly shown) [Compound 112] | – | – | –
36 | 8.53 | 68 | 98.9 | [O-][S+]1CCc2nc(N3CCc4cc(N5C[C@H]6COC[C@H]6C5)ccc4C3)nc(NC3(CO)CCC3)c21 (stereo partly shown) [Compound 178] | – | – | –
37 | -2.7 | 15.7 | 84.8 | [O-][S+]1CCc2nc(N3CCc4cc(Cl)c(F)cc4C3)nc(NC3(CO)CCC3)c21 (stereo not shown) [Compound 96] | – | – | –
38 | 14 | 61 | 94.2 | CS(=O)(=O)c1ccc2c(c1)CCN(c1nc3c(c(NC4(CO)CCC4)n1)[S+]([O-])CC3)C2 (stereo not shown) [Compound 93] | – | – | –
39 | 7.53 | 42.5 | 93.5 | Cn1nc(Cl)c2c3c(cnc21)CN(c1nc2c(c(NC4(CO)CCC4)n1)[S+]([O-])CC2)CC3 (stereo not shown) [Compound 105] | – | – | –
40 | 19.2 | 86 | 100 | [O-][S+]1CCc2nc(N3CCc4cc(-n5cccn5)ccc4C3)nc(NC3(CO)CCC3)c21 (stereo not shown) [Compound 91] | – | – | –
41 | 7.72 | 39.7 | 97.7 | [O-][S+]1CCc2nc(N3CC[C@@H]4c5ccc(Br)cc5OC[C@H]4C3)nc(NC3(CO)CCC3)c21 (stereo partly shown) [Compound 115] | – | – | –
42 | 17.7 | 65.4 | 97.8 | [O-][S+]1CCc2nc(N3CC[C@@H]4c5ccc(F)cc5OC[C@H]4C3)nc(NC3(CO)CCC3)c21 (stereo partly shown) [Compound 109] | – | – | –
43 | – | 18.8 | 79.2 | [O-][S+]1CCc2nc(N3CCc4cccc(Cl)c4C3)nc(NC3(CO)CCC3)c21 (stereo not shown) [Compound 21] | – | – | –
44 | – | 81.8 | 99.5 | [O-][S+]1CCc2nc(N3CCc4cc(C(F)(F)F)ccc4C3)nc(NC3(CO)CCC3)c21 (stereo not shown) [Compound 52] | – | – | –
45 | 6.23 | 20 | 61.1 | [O-][S+]1CCc2nc(N3CCc4cc(N5CC6(COC6)C5)ccc4C3)nc(NC3(CO)CCC3)c21 (stereo not shown) [Compound 164] | – | – | –
46 | -0.08 | 35.9 | 95.5 | Nc1nc2cc(Cl)ccc2c2c1CN(c1nc3c(c(NC4(CO)CCC4)n1)[S+]([O-])CC3)CC2 (stereo not shown) [Compound 102] | – | – | –
47 | 8.69 | 63.1 | 97.8 | CN1CCN(c2ccc3c(c2)CCN(c2nc4c(c(NC5(CO)CCC5)n2)[S+]([O-])CC4)C3)C1=O (stereo not shown) [Compound 86] | – | – | –
